# Values joined by “and” are separate entries in the source; they are usually repeats but may differ in a detail not shown here. Equal values may be shown once.
# Columns and labels:
# [1] = Serum Lutein concentration by HPLC during 24 weeks of daily capsule ingestion (bioavailability evaluation); format: in vivo
# Method: The evaluation was carried out over a period of 24 weeks with three (3) groups of subjects that ingested daily one gelatin capsule containing the following: • The first group ingested a capsule containing a dispersion of 20 mg of Micro-Mic™ in vegetable oil. • The second group ingested a gelatin capsule containing a dispersion of 20 mg of commercial crystalline Lutein dispersed in vegetable oil. • The third group ingested a gelatin capsule containing only vegetable oil (placebo). The three gelatin capsules were all the same color (dark brown). Blood samples were collected weekly and the serum analyzed for Lutein by HPLC, and the concentration was reported as (ng/ul) of Lutein The results obtained are shown for Baseline date, week 6th, week 12^t1, week 18th, and week 24th. The ratio between the concentrations at each week was divided by the Baseline concentration. The average of those ratios is reported at the base of each column.
# [2] = Rate of increase in MPOD (Macular Pigment Optical Density) during 24 weeks of daily capsule ingestion; format: in vivo; conditions: 20 mg daily capsule
# Method: The evaluation was carried out over a period of 24 weeks with three (3) groups of subjects that ingested daily one gelatin capsule containing the following: • The first group ingested a capsule containing a dispersion of 20 mg of Micro-Mic™ in vegetable oil. • The second group ingested a gelatin capsule containing a dispersion of 20 mg of commercial crystalline Lutein dispersed in vegetable oil. • The third group ingested a gelatin capsule containing only vegetable oil (placebo). The three gelatin capsules were all the same color (dark brown).
# Rate of Increase in MPOD in Absorbance Units Per Week
# The serum results are a better indicator of bioavailability than the macular pigment results. It is well established that some subjects are serum responders, but macular pigment non-responders. However in this evaluation the Micro-Mic™ group mean MPOD (Macular Pigment Optical Density) exceeds that of the crystalline Lutein subjects by approximately 14%.
compound,measurement,setting,value
CC1=C[C@H](O)CC(C)(C)[C@H]1/C=C/C(C)=C/C=C/C(C)=C/C=C/C=C(C)/C=C/C=C(C)/C=C/C1=C(C)C[C@@H](O)CC1(C)C [Lutein],"Week 6/Baseline, group average","[1]; average of the subjects' ratios, week 6",4.964
same,"Week 12/Baseline, group average","[1]; average of the subjects' ratios, week 12",4.492
same,"Week 18/Baseline, group average","[1]; average of the subjects' ratios, week 18",4.345
same,"Week 24/Baseline, group average","[1]; average of the subjects' ratios, week 24",3.931
same,"Week 6-24/Baseline, group average","[1]; average of the subjects' ratios, weeks 6-24",4.433
same,concentration at 6 weeks,"[1]; human, serum, oral, 20 mg, serum, group average, week 6, 20 mg daily capsule in vegetable oil, read-out: Week 6 Lutein Conc. B, group average",632 ng/mL
same,concentration at 12 weeks,"[1]; human, serum, oral, 20 mg, serum, group average, week 12, 20 mg daily capsule in vegetable oil, read-out: Week 12 Lutein Conc. C, group average",577 ng/mL
same,concentration at 18 weeks,"[1]; human, serum, oral, 20 mg, serum, group average, week 18, 20 mg daily capsule in vegetable oil, read-out: Week 18 Lutein Conc. D, group average",545 ng/mL
same,concentration at 24 weeks,"[1]; human, serum, oral, 20 mg, serum, group average, week 24, 20 mg daily capsule in vegetable oil, read-out: Week 24 Lutein Conc. E, group average",458 ng/mL
same,Week 6/Baseline,"[1]; ratio of serum Lutein conc., individual subject, week 6",3.934 and 4.235 and 3.335 and 4.201 and 5.425 and 2.914 and 8.047 and 8.611 and 2.624 and 6.314
same,Week 12/Baseline,"[1]; ratio of serum Lutein conc., individual subject, week 12",4.398 and 3.871 and 2.494 and 5.926 and 5.242 and 4.491 and 3.439 and 5.491 and 3.867 and 5.704
same,Week 18/Baseline,"[1]; ratio of serum Lutein conc., individual subject, week 18",3.608 and 2.273 and 2.296 and 4.321 and 11.494 and 2.395 and 3.171 and 7.268 and 2.283 and 4.335
same,Week 24/Baseline,"[1]; ratio of serum Lutein conc., individual subject, week 24",2.721 and 1.327 and 1.910 and 8.589 and 4.965 and 2.051 and 2.296 and 5.931 and 4.958 and 4.563
same,Week 6-24/Baseline,"[1]; ratio of serum Lutein conc., individual subject, weeks 6-24",3.665 and 2.927 and 2.509 and 5.759 and 6.782 and 2.963 and 4.238 and 6.825 and 3.433 and 5.229
same,"Baseline Lutein Conc. A, group average","[1]; serum, group average, baseline, group later given 20 mg daily capsule",0.128 ng/µL
same,Baseline Lutein Conc. A,"[1]; serum, individual subject, baseline, group later given 20 mg daily capsule",0.268 ng/ul and 0.108 ng/ul (3×) and 0.112 ng/ul and 0.063 ng/ul and 0.151 ng/ul and 0.119 ng/ul and 0.082 ng/ul and 0.164 ng/ul
same,Week 6 Lutein Conc. B,"[1]; serum, individual subject, week 6, 20 mg daily capsule in vegetable oil",1.054 ng/µL and 0.457 ng/µL and 0.372 ng/µL and 0.265 ng/µL and 0.584 ng/µL and 0.439 ng/µL and 0.867 ng/µL and 1.028 ng/µL and 0.215 ng/µL and 1.035 ng/µL
same,Week 12 Lutein Conc. C,"[1]; serum, individual subject, week 12, 20 mg daily capsule in vegetable oil",1.179 ng/µL and 0.418 ng/µL and 0.278 ng/µL and 0.373 ng/µL and 0.564 ng/µL and 0.677 ng/µL and 0.370 ng/µL and 0.655 ng/µL and 0.317 ng/µL and 0.935 ng/µL
same,Week 18 Lutein Conc. D,"[1]; serum, individual subject, week 18, 20 mg daily capsule in vegetable oil",0.967 ng/µL and 0.246 ng/µL and 0.256 ng/µL and 0.272 ng/µL and 1.238 ng/µL and 0.361 ng/µL and 0.341 ng/µL and 0.867 ng/µL and 0.187 ng/µL and 0.711 ng/µL
same,Week 24 Lutein Conc. E,"[1]; serum, individual subject, week 24, 20 mg daily capsule in vegetable oil",0.729 ng/µL and 0.143 ng/µL and 0.213 ng/µL and 0.541 ng/µL and 0.535 ng/µL and 0.309 ng/µL and 0.247 ng/µL and 0.708 ng/µL and 0.407 ng/µL and 0.748 ng/µL
same,"Rate of Increase in MPOD, Max",[2]; group maximum,5.100E−03 Absorbance Units Per Week
same,"Rate of Increase in MPOD, Mean",[2]; group mean,1.690E−03 Absorbance Units Per Week
same,"Rate of Increase in MPOD, Median",[2]; group median,1.550E−03 Absorbance Units Per Week
same,"Rate of Increase in MPOD, Min",[2]; group minimum,−8.000E−04 Absorbance Units Per Week
